Reference: ChEMBL document CHEMBL5532687, “A colorimetric assay adapted to fragment screening revealing aurones and chalcones as new arginase inhibitors” (RSC Med Chem, 2024)

Target: T1, Arginase-1 (Bos taurus, UniProt Q2KJ64)
T1 sequence (Q2KJ64 whole entry): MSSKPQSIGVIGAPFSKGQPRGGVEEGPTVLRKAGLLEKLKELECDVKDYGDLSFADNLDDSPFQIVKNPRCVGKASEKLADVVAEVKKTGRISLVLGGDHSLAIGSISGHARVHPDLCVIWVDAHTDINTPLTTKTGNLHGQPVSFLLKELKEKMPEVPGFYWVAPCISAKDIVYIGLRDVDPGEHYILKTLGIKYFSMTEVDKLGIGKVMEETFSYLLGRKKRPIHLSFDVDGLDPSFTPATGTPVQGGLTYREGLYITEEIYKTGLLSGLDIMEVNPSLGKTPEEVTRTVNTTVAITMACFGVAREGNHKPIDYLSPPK
Test: Inhibition of bovine liver arginase 1 using L-arginine as substrate incubated for 60 mins by OPA-p colorimetric assay

IC50 [µM] | SMILES
23 | N[C@@H](CSCCB(O)O)C(=O)O
91.1 | O=C(/C=C/c1ccc(O)c(O)c1)c1ccc(O)c(O)c1
254 | O=C1/C(=C/c2ccc(O)c(O)c2)Oc2c1ccc(O)c2O
271 | O=C(/C=C/c1ccc(O)c(O)c1)O[C@@H]1C[C@](O)(C(=O)O)C[C@@H](O)[C@H]1O [CHLOROGENIC ACID]
720 | Oc1ccc(Cl)cc1C1CC(c2ccco2)=NN1 (configuration not stated)
437 | O=C1/C(=C/c2ccc(O)c(O)c2)Oc2cc(O)ccc21 [SULFURETIN]
135 | O=C(/C=C/c1cccc(O)c1)c1ccc(O)c(O)c1
312 | O=C1/C(=C/c2ccc(F)c(F)c2)Oc2c1ccc(O)c2O
98 | O=C(/C=C/c1ccc(O)c(O)c1)c1c(O)cc(O)cc1O [3,4,2',4',6'-PENTAHYDROXYCHALCONE]
354 | O=C(/C=C/c1ccc(O)c(O)c1)c1ccc(O)cc1
764 | O=C(/C=C/c1cc(O)c(O)c(O)c1)c1ccc(O)c(O)c1
1550 | O=C(/C=C/c1ccc(O)c(O)c1)c1ccc(O)cc1O [BUTEIN]
351 | O=C(/C=C/c1ccc(O)c(O)c1)c1ccccc1
302 | O=C(/C=C/c1ccc(O)cc1)c1ccc(O)c(O)c1
532 | O=C1/C(=C/c2ccc(O)c(O)c2O)Oc2c1ccc(O)c2O
364 | O=C(/C=C/c1cc(O)cc(O)c1)c1ccc(O)c(O)c1
136 | O=C(/C=C/c1ccc(O)c(O)c1)c1cc(O)cc(O)c1
1090 | O=C1/C(=C/c2c(F)c(F)c(F)c(F)c2F)Oc2c1ccc(O)c2O
384 | O=C(/C=C/c1ccccc1)c1ccc(O)c(O)c1
507 | O=C1/C(=C/c2ccc(F)cc2)Oc2c1ccc(O)c2O
375 | Oc1cccc(O)c1O [PYROGALLOL]
71.6 | Oc1cc(O)cc(/C=C/c2ccc(O)c(O)c2)c1 [PICEATANNOL]
287 | O=C1/C(=C/c2cc(O)c(O)c(O)c2)Oc2c1ccc(O)c2O
537 | O=C1C(=Cc2ccc(O)c(O)c2)C(=O)c2ccccc21
120 | O=C1/C(=C/c2cccc(O)c2)Oc2c1ccc(O)c2O
1930 | O=C1/C(=C/c2ccc(O)cc2)Oc2c1ccc(O)c2O
102 | O=C(/C=C/c1ccc(O)c(O)c1)c1cccc(O)c1
